Experimental data published in patent US9833497B2, “Human originated EGF domain proteins and use of the same” (CHENGDU SOURCEBIO LIMITED-LIABILITY COMPANY, priority 2013, dated 2017).

What was measured:
Format in all cases: cell-based
[1] = tested on: E. coli DH5α; assay: Antibacterial activity: MIC and growth curve against E. coli DH5α in 96-well plate; settings: minimal inhibitory concentration against E. coli DH5α; 96-well plate, 5×10^5 CFU/mL, 37° C., judged after 8 h
Outline: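 MIC taken as lowest protein level with no bacterial growth, tracked by A600 every 30 min during 37 °C, 175 rpm culture. Two-fold protein series 50-12.5 μg/mL final, triplicate wells, against 5×10^5 CFU/mL of LB-washed mid-log cells.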

[2] = tested on: E. coli BL21; assay: MIC against Gram-negative bacteria: E. coli BL21; settings: for MIC against E. coli BL21 / MIC (μg/mL) E. coli BL21: 5×10^5 CFU/mL
Outline: (§1)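 LB broth cultures at McFarland 0.5, spun down, resuspended, diluted to 5×10^5 CFU/mL final. Two-fold serial dilutions of purified human EGF domain proteins, triplicate. 37° C, 175 rpm shaking. Endpoint: no visible growth.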

[3] = tested on: Pseudomonas aeruginosa; assay: MIC against Gram-negative bacteria: Pseudomonas aeruginosa; settings: for MIC against P. aeruginosa / MIC (μg/mL) P. aeruginosa: 5×10^5 CFU/mL
Outline: as §1

[4] = tested on: Klebsiella pneumonia; assay: MIC against Gram-negative bacteria: Klebsiella pneumonia; settings: for MIC against K. pneumonia / MIC (μg/mL) K. pneumonia: 5×10^5 CFU/mL
Outline: as §1

[5] = tested on: Enterobacter cloacae; assay: MIC against Gram-negative bacteria: Enterobacter cloacae; settings: for MIC against E. cloacae / MIC (μg/mL) E. cloacae: 5×10^5 CFU/mL
Outline: as §1

[6] = tested on: Aeromonas hydrophila; assay: MIC against Gram-negative bacteria: Aeromonas hydrophila; settings: for MIC against A. hydrophila / MIC (μg/mL) A. hydrophila: 5×10^5 CFU/mL
Outline: as §1

[7] = tested on: Citrobacter diversus; assay: MIC against Gram-negative bacteria: Citrobacter diversus; settings: for MIC against C. diversus / MIC (μg/mL) C. diversus: 5×10^5 CFU/mL
Outline: as §1

[8] = tested on: Moraxella catarrhalis; assay: MIC against Gram-negative bacteria: Moraxella catarrhalis; settings: for MIC against M. catarrhalis / MIC (μg/mL) M. catarrhalis: 5×10^5 CFU/mL
Outline: as §1

[9] = tested on: Proteus mirabilis; assay: MIC against Gram-negative bacteria: Proteus mirabilis; settings: for MIC against P. mirabilis / MIC (μg/mL) P. mirabilis: 5×10^5 CFU/mL
Outline: as §1

[10] = tested on: Proteus vulgaris; assay: MIC against Gram-negative bacteria: Proteus vulgaris; settings: for MIC against P. vulgaris / MIC (μg/mL) P. vulgaris: 5×10^5 CFU/mL
Outline: as §1

[11] = tested on: Serratia marcescens; assay: MIC against Gram-negative bacteria: Serratia marcescens; settings: for MIC against S. marcescens / MIC (μg/mL) S. marcescens: 5×10^5 CFU/mL
Outline: as §1

[12] = E. coli BL21, 96-well plate, 37° C., 10 h
[13] = Pseudomonas aeruginosa, 96-well plate, 37° C., 10 h
[14] = Klebsiella pneumonia, 96-well plate, 37° C., 10 h
[15] = Enterobacter cloacae, 96-well plate, 37° C., 10 h
[16] = Aeromonas hydrophila, 96-well plate, 37° C., 10 h
[17] = Citrobacter diversus, 96-well plate, 37° C., 10 h
[18] = Moraxella catarrhalis, 96-well plate, 37° C., 10 h
[19] = Proteus mirabilis, 96-well plate, 37° C., 10 h
[20] = Proteus vulgaris, 96-well plate, 37° C., 10 h
[21] = Serratia marcescens, 96-well plate, 37° C., 10 h
[22] = E. coli BL21, 10 h cultivation at 37° C.
[23] = P. aeruginosa, 10 h cultivation at 37° C.
[24] = K. pneumonia, 10 h cultivation at 37° C.
[25] = E. cloacae, 10 h cultivation at 37° C.
[26] = A. hydrophila, 10 h cultivation at 37° C.
[27] = C. diversus, 10 h cultivation at 37° C.
[28] = M. catarrhalis, 10 h cultivation at 37° C.
[29] = P. mirabilis, 10 h cultivation at 37° C.
[30] = P. vulgaris, 10 h cultivation at 37° C.
[31] = S. marcescens, 10 h cultivation at 37° C.

PRT1304 (ARDPCLGHRCHHGKCVATGTSYMCKCAEGYGGDLCD; listed as Homo sapiens)
MIC [1]: 25 µg/mL
MIC against E. coli BL21 [2, 12]: 12.5 µg/mL
MIC against P. aeruginosa [3, 13]: 25 µg/mL
MIC against K. pneumonia [4, 14]: 12.5 µg/mL
MIC against E. cloacae [5, 15]: 12.5 µg/mL
MIC against A. hydrophila [6, 16]: 25 µg/mL
MIC against C. diversus [7, 17]: 12.5 µg/mL
MIC against M. catarrhalis [8, 18]: 25 µg/mL
MIC against P. mirabilis [9, 19]: 12.5 µg/mL
MIC against P. vulgaris [10, 20]: 25 µg/mL
MIC against S. marcescens [11, 21]: 12.5 µg/mL

PRT958 (DVDECSIGANPCEHLGRCVNTQGSFLCQCGRGYTGPRCE; listed as Homo sapiens)
MIC [1]: 50 µg/mL
MIC [2, 22]: 12.5 µg/mL
MIC [3, 23]: 25 µg/mL
MIC [4, 24]: 50 µg/mL
MIC [5, 25]: 25 µg/mL
MIC [6, 26]: 25 µg/mL
MIC [7, 27]: 12.5 µg/mL
MIC [8, 28]: 50 µg/mL
MIC [9, 29]: 25 µg/mL
MIC [10, 30]: 12.5 µg/mL
MIC [11, 31]: 25 µg/mL

PRT873 (CECYGHSNRCSYIDFLNVVTCVSCKHNTRGQHCQHCRLGYYRNGSAELDDENVCIE; listed as Homo sapiens)
MIC [1]: 12.5 µg/mL
MIC (μg/mL) E. coli BL21 [2, 22]: 50 µg/mL
MIC (μg/mL) P. aeruginosa [3, 23]: 12.5 µg/mL
MIC (μg/mL) K. pneumonia [4, 24]: 25 µg/mL
MIC (μg/mL) E. cloacae [5, 25]: 25 µg/mL
MIC (μg/mL) A. hydrophila [6, 26]: 50 µg/mL
MIC (μg/mL) C. diversus [7, 27]: 25 µg/mL
MIC (μg/mL) M. catarrhalis [8, 28]: 12.5 µg/mL
MIC (μg/mL) P. mirabilis [9, 29]: 25 µg/mL
MIC (μg/mL) P. vulgaris [10, 30]: 50 µg/mL
MIC (μg/mL) S. marcescens [11, 31]: 12.5 µg/mL

PRT23 (KKNPCNAEFQNFCIHGECKYIEHLEAVTCKCQQEYFGERCG; listed as Homo sapiens)
MIC [1]: 12.5 µg/mL
MIC (μg/mL) E. coli BL21 [2, 12]: 25 µg/mL
MIC (μg/mL) P. aeruginosa [3, 13]: 12.5 µg/mL
MIC (μg/mL) K. pneumonia [4, 14]: 12.5 µg/mL
MIC (μg/mL) E. cloacae [5, 15]: 25 µg/mL
MIC (μg/mL) A. hydrophila [6, 16]: 12.5 µg/mL
MIC (μg/mL) C. diversus [7, 17]: 50 µg/mL
MIC (μg/mL) M. catarrhalis [8, 18]: 25 µg/mL
MIC (μg/mL) P. mirabilis [9, 19]: 50 µg/mL
MIC (μg/mL) P. vulgaris [10, 20]: 25 µg/mL
MIC (μg/mL) S. marcescens [11, 21]: 50 µg/mL

PRT24 (ELDLCYSNPCRNGGACARREGGYTCVCRPRFTGEDCE; listed as Homo sapiens)
MIC [1]: 12.5 µg/mL
MIC (μg/mL) E. coli BL21 [2, 12]: 25 µg/mL
MIC (μg/mL) P. aeruginosa [3, 13]: 12.5 µg/mL
MIC (μg/mL) K. pneumonia [4, 14]: 25 µg/mL
MIC (μg/mL) E. cloacae [5, 15]: 12.5 µg/mL
MIC (μg/mL) A. hydrophila [6, 16]: 12.5 µg/mL
MIC (μg/mL) C. diversus [7, 17]: 25 µg/mL
MIC (μg/mL) M. catarrhalis [8, 18]: 12.5 µg/mL
MIC (μg/mL) P. mirabilis [9, 19]: 25 µg/mL
MIC (μg/mL) P. vulgaris [10, 20]: 12.5 µg/mL
MIC (μg/mL) S. marcescens [11, 21]: 25 µg/mL

PRT506 (CNCSVAGSVSDGCTDEGQCHCVPGVAGKRCDRCAHGFYAYQDGSCTP; listed as Homo sapiens)
MIC [1]: 25 µg/mL
MIC against E. coli BL21 ([2]; 96-well plate, 37° C., 10 h): 12.5 µg/mL
MIC against P. aeruginosa ([3]; 96-well plate, 37° C., 10 h): 25 µg/mL
MIC against K. pneumonia ([4]; 96-well plate, 37° C., 10 h): 50 µg/mL
MIC against E. cloacae ([5]; 96-well plate, 37° C., 10 h): 25 µg/mL
MIC against A. hydrophila ([6]; 96-well plate, 37° C., 10 h): 12.5 µg/mL
MIC against C. diversus ([7]; 96-well plate, 37° C., 10 h): 25 µg/mL
MIC against M. catarrhalis ([8]; 96-well plate, 37° C., 10 h): 50 µg/mL
MIC against P. mirabilis ([9]; 96-well plate, 37° C., 10 h): 25 µg/mL
MIC against P. vulgaris ([10]; 96-well plate, 37° C., 10 h): 12.5 µg/mL
MIC against S. marcescens ([11]; 96-well plate, 37° C., 10 h): 12.5 µg/mL
